# Assays:
# Type in all cases: in vivo
# [1] = tested on: ducksalad (Heteranthera limosa); experiment: Test B flooded paddy test, visual plant response rating 0-100; settings: 250 g ai/ha, Flood, applied to paddy water, evaluated after 13 days
# How it was run: (§1)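 Plants were grown to the 2-leaf stage, then pots were flooded to 3 cm above the soil and compound was applied directly to the paddy water, with that depth kept throughout.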
# [2] = tested on: sedge, umbrella (small-flower umbrella sedge, Cyperus difformis); experiment: as above; settings: 250 g ai/ha, Flood, applied to paddy water, evaluated after 13 days
# How it was run: as §1
# [3] = tested on: rice (Oryza sativa); experiment: as above; settings: 250 g ai/ha, Flood, applied to paddy water, evaluated after 13 days
# How it was run: as §1
# [4] = tested on: barnyardgrass (Echinochloa crusgalli); experiment: as above; settings: 250 g ai/ha, Flood, applied to paddy water, evaluated after 13 days
# How it was run: as §1
# [5] = tested on: horseweed (Erigeron canadensis); experiment: Test A postemergence application, visual injury rating 0-100
# Source text: (§2) Seeds of plant species selected from barnyardgrass (Echinochloa crus-galli), blackgrass (Alopecurus myosuroides), corn (Zea mays), foxtail, giant (giant foxtail, Setaria faberi), green foxtail (Setaria viridis), goosegrass (Eleusine indica), kochia (Bassia scoparia), oat, wild (wild oat, Avena fatua), palmer (palmer amaranth, palmer pigweed, Amaranthus palmeri), ragweed (common ragweed, Ambrosia artemisiifolia), ryegrass, Italian (italian ryegrass, Lolium multiflorum), soybean (Glycine max) and wheat (Triticum aestivum) were planted into a blend of loam soil and sand and treated preemergence with a directed soil spray using test chemicals formulated in a non-phytotoxic solvent mixture which included a surfactant.
# (§3) At the same time, plants selected from these crops and weed species and also galium (catchweed bedstraw, Galium aparine) and horseweed (Erigeron canadensis) were planted in pots containing the same blend of loam soil and sand and treated with postemergence applications of test chemicals formulated in the same manner. Plants ranged in height from 2 to 10 cm and were in the one- to two-leaf stage for the postemergence treatment. Treated plants and untreated controls were maintained in a greenhouse for 10 days, after which time all treated plants were compared to untreated controls and visually evaluated for injury. Plant response ratings, summarized in Table A, are based on a 0 to 100 scale where 0 is no effect and 100 is complete control. A dash (-) response means no test result.
# [6] = tested on: oat, wild (wild oat, Avena fatua); experiment: as above
# Source text: as §2, §3
# [7] = tested on: ragweed (common ragweed, Ambrosia artemisiifolia); experiment: as above
# Source text: as §2, §3
# [8] = tested on: blackgrass (Alopecurus myosuroides); experiment: as above
# Source text: as §2, §3
# [9] = tested on: palmer (palmer amaranth, palmer pigweed, Amaranthus palmeri); experiment: as above
# Source text: as §2, §3
# [10] = tested on: corn (Zea mays); experiment: as above
# Source text: as §2, §3
# [11] = tested on: soybean (Glycine max); experiment: as above
# Source text: as §2, §3
# [12] = tested on: ryegrass, Italian (italian ryegrass, Lolium multiflorum); experiment: as above
# Source text: as §2, §3
# [13] = tested on: wheat (Triticum aestivum); experiment: as above
# Source text: as §2, §3
# [14] = tested on: kochia (Bassia scoparia); experiment: as above
# Source text: as §2, §3
# [15] = tested on: barnyardgrass (Echinochloa crus-galli); experiment: as above
# Source text: as §2, §3
# [16] = tested on: green foxtail (Setaria viridis); experiment: as above
# Source text: as §2, §3
# [17] = tested on: oat, wild (wild oat, Avena fatua); experiment: Test A preemergence soil spray, visual injury rating 0-100; settings: 10 days
# How it was run: (§4)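 Compounds formulated in a non-phytotoxic solvent with surfactant are sprayed onto soil of freshly planted loam-sand pots ahead of emergence, or onto emerged plants 2-10 cm tall. After a 10-day greenhouse period, each species is scored visually for injury against untreated controls.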
# [18] = tested on: ragweed (common ragweed, Ambrosia artemisiifolia); experiment: as above; settings: 10 days
# How it was run: as §4
# [19] = tested on: blackgrass (Alopecurus myosuroides); experiment: as above; settings: 10 days
# How it was run: as §4
# [20] = tested on: palmer (palmer amaranth, palmer pigweed, Amaranthus palmeri); experiment: as above; settings: 10 days
# How it was run: as §4
# [21] = tested on: corn (Zea mays); experiment: as above; settings: 10 days
# How it was run: as §4
# [22] = tested on: soybean (Glycine max); experiment: as above; settings: 10 days
# How it was run: as §4
# [23] = tested on: ryegrass, Italian (italian ryegrass, Lolium multiflorum); experiment: as above; settings: 10 days
# How it was run: as §4
# [24] = tested on: wheat (Triticum aestivum); experiment: as above; settings: 10 days
# How it was run: as §4
# [25] = tested on: kochia (Bassia scoparia); experiment: as above; settings: 10 days
# How it was run: as §4
# [26] = tested on: barnyardgrass (Echinochloa crus-galli); experiment: as above; settings: 10 days
# How it was run: as §4
# [27] = tested on: green foxtail (Setaria viridis); experiment: as above; settings: 10 days
# How it was run: as §4
# [28] = 62 g ai/ha, postemergence, 10 days, 0 = no effect, 100 = complete control
# [29] = Postemergence, 16 g ai/ha, greenhouse 10 days, 0 no effect, 100 complete control
# [30] = 62 g ai/ha, 0 = no effect, 100 = complete control
smiles,measurement,setting,value
COC(=O)COC(=O)C1=CCC(NC(=O)C2(C)CN(c3cc(F)cc(F)c3)C(=O)O2)C1 (centres unmarked) [Compound 107],"Plant response rating, Ducksalad (0 to 100 scale, 0 is no effect and 100 is complete control)",[1],0
same,"Plant response rating, Sedge, Umbrella (0 to 100 scale, 0 is no effect and 100 is complete control)",[2],0
same,"Plant response rating, Rice (0 to 100 scale, 0 is no effect and 100 is complete control)",[3],0
same,"Plant response rating, Barnyardgrass (0 to 100 scale, 0 is no effect and 100 is complete control)",[4],0
same,Horseweed plant response rating (0-100),[5]; [28],30
same,Horseweed plant response rating (0 to 100 scale),[5]; [29],0
same,"Oat, Wild plant response rating (0-100)",[6]; [28],20
same,"Oat, Wild plant response rating (0 to 100 scale)",[6]; [29],0
same,Ragweed plant response rating (0-100),[7]; [28],20
same,Ragweed plant response rating (0 to 100 scale),[7]; [29],0
same,Blackgrass plant response rating (0-100),[8]; [28],60
same,Blackgrass plant response rating (0 to 100 scale),[8]; [29],0
same,"Pigweed, Palmer plant response rating (0-100)",[9]; [28],30
same,"Pigweed, Palmer plant response rating (0 to 100 scale)",[9]; [29],0
same,Corn plant response rating (0-100),[10]; [28],100
same,Corn plant response rating (0 to 100 scale),[10]; [29],0
same,Soybean plant response rating (0-100),[11]; [28],40
same,Soybean plant response rating (0 to 100 scale),[11]; [29],0
same,"Ryegrass, Italian plant response rating (0-100)",[12]; [28],60
same,"Ryegrass, Italian plant response rating (0 to 100 scale)",[12]; [29],0
same,Wheat plant response rating (0-100),[13]; [28],50
same,Wheat plant response rating (0 to 100 scale),[13]; [29],0
same,Kochia plant response rating (0-100),[14]; [28],10
same,Kochia plant response rating (0 to 100 scale),[14]; [29],0
same,Barnyardgrass plant response rating (0-100),[15]; [28],80
same,Barnyardgrass plant response rating (0 to 100 scale),[15]; [29],0
same,"Foxtail, Green plant response rating (0-100)",[16]; [28],20
same,"Foxtail, Green plant response rating (0 to 100 scale)",[16]; [29],0
same,"Oat, Wild plant response rating","[17]; 16 g ai/ha, 0 to 100 scale",0
same,"Oat, Wild plant response rating (0-100)",[17]; [30],0
same,Ragweed plant response rating,"[18]; 16 g ai/ha, 0 to 100 scale",0
same,Ragweed plant response rating (0-100),[18]; [30],0
same,Blackgrass plant response rating,"[19]; 16 g ai/ha, 0 to 100 scale",0
same,Blackgrass plant response rating (0-100),[19]; [30],0
same,"Pigweed, Palmer plant response rating","[20]; 16 g ai/ha, 0 to 100 scale",0
same,"Pigweed, Palmer plant response rating (0-100)",[20]; [30],0
same,Corn plant response rating,"[21]; 16 g ai/ha, 0 to 100 scale",0
same,Corn plant response rating (0-100),[21]; [30],0
same,Soybean plant response rating,"[22]; 16 g ai/ha, 0 to 100 scale",0
same,Soybean plant response rating (0-100),[22]; [30],0
same,"Ryegrass, Italian plant response rating","[23]; 16 g ai/ha, 0 to 100 scale",10
same,"Ryegrass, Italian plant response rating (0-100)",[23]; [30],40
same,Wheat plant response rating,"[24]; 16 g ai/ha, 0 to 100 scale",0
same,Wheat plant response rating (0-100),[24]; [30],10
same,Kochia plant response rating,"[25]; 16 g ai/ha, 0 to 100 scale",0
same,Kochia plant response rating (0-100),[25]; [30],0
same,Barnyardgrass plant response rating,"[26]; 16 g ai/ha, 0 to 100 scale",0
same,Barnyardgrass plant response rating (0-100),[26]; [30],10
same,"Foxtail, Green plant response rating","[27]; 16 g ai/ha, 0 to 100 scale",0
same,"Foxtail, Green plant response rating (0-100)",[27]; [30],0

# — US20260285850A1, “SUBSTITUTED OXAZOLIDINONES AND IMIDAZOLINONES AS HERBICIDES” (FMC CORPORATION, priority 2023, published 2026)
